Measured values taken from ChEMBL document CHEMBL1144935, “Synthesis, biological evaluation, and receptor docking simulations of 2-[(acylamino)ethyl]-1,4-benzodiazepines as kappa-opioid receptor agonists endowed with antinociceptive and antiamnesic activity” (J Med Chem, 2003).

How the values were obtained:
[1] = target: T1, Kappa-type opioid receptor (Homo sapiens, UniProt P41145); assay: Binding constant towards human Opioid receptor kappa 1 was reported
[2] = target: T1, Kappa-type opioid receptor; assay: Binding affinity against opioid receptor kappa 1 from human cloned receptor
Mu-type opioid receptor [3] = target: Mu-type opioid receptor (Homo sapiens, UniProt P35372); assay: Binding affinity determined against Opioid receptor mu 1 from human cloned receptor
[4] = target: Kappa-type opioid receptor (Cavia porcellus, UniProt P41144); assay: Binding affinity determined against Opioid receptor kappa 1 from a native receptor in guinea pig
Mu-type opioid receptor [5] = target: Mu-type opioid receptor (Cavia porcellus, UniProt P97266); assay: Binding affinity of compound was determined against Opioid receptor mu 1 from native receptor in guinea pig
[6] = target: Delta-type opioid receptor (Homo sapiens, UniProt P41143)
Chain of Delta-type opioid receptor (P41143 whole entry): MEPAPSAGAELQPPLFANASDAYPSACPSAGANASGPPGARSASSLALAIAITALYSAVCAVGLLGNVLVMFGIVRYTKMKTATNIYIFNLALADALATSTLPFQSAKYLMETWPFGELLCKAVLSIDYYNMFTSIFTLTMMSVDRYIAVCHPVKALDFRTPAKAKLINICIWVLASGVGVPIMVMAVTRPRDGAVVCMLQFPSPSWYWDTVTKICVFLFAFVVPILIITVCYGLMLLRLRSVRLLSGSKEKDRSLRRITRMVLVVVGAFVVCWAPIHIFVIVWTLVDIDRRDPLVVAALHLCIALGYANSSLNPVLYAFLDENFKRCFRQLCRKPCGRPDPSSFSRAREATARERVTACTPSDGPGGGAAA
Description: Binding affinity determined against Opioid receptor delta 1 from human cloned receptor

T1 sequence (P41145 whole entry): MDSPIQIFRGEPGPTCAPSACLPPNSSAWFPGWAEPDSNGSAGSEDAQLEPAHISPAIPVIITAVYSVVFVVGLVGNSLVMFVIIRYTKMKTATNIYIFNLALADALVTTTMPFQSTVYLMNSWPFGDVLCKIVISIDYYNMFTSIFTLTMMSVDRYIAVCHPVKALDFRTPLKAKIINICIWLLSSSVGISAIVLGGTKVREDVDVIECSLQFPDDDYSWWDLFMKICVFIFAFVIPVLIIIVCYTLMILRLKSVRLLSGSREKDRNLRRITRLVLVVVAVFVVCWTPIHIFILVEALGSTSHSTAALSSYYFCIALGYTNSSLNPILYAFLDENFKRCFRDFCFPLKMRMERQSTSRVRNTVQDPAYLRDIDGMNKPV
Chain of Kappa-type opioid receptor (Cavia porcellus, UniProt P41144) (P41144 whole entry): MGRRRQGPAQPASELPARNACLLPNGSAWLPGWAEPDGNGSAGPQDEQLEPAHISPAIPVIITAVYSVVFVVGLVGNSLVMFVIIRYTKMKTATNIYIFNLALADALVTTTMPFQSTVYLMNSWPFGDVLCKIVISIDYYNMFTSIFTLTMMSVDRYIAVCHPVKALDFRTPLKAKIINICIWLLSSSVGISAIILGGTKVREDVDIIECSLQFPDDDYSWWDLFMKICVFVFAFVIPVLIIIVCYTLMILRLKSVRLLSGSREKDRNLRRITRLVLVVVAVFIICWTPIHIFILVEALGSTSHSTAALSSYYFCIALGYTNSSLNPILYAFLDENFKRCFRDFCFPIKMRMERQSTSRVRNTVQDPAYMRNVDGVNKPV
Chain of Mu-type opioid receptor (Homo sapiens, UniProt P35372) (P35372 whole entry): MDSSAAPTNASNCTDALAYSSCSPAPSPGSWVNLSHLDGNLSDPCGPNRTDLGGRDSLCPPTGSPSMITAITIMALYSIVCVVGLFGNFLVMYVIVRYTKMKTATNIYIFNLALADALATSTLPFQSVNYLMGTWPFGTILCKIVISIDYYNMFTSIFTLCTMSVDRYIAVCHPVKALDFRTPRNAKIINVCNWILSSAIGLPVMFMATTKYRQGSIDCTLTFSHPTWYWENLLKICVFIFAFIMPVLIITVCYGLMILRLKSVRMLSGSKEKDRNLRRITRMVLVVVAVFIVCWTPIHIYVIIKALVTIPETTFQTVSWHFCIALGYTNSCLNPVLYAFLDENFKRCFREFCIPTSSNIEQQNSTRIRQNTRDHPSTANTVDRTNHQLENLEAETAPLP
Chain of Mu-type opioid receptor (Cavia porcellus, UniProt P97266) (P97266 whole entry): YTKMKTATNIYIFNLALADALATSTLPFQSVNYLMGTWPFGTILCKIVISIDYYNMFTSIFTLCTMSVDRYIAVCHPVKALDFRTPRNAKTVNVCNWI

Row | SMILES | Ki [1] [nM] | Ki [2] [nM] | Ki (Mu-type opioid receptor [3]) [nM] | Ki [4] [nM] | Ki (Mu-type opioid receptor [5]) [nM] | Ki [6] [nM]
1 | O=C(NCCC1CN=C(c2ccccc2)c2ccccc2N1)c1ccccc1 (configuration not stated) | 0.251 | 0.25 |  |  |  | 
2 | CN1c2ccc(Cl)cc2C(c2ccccc2)=NCC1CCNC(=O)c1cccs1 (configuration not stated) |  | 0.7 | 26.3 |  |  | 
3 | CN1c2ccc(Cl)cc2C(c2ccccc2)=NCC1CCNC(=O)c1ccccc1F (configuration not stated) | 1.55 | 1.52 |  |  |  | 
4 | COc1cccc2c1C(c1ccccc1)=NCC(CCNC(=O)c1cccs1)N2C (configuration not stated) | 3.8 | 3.77 |  | 116 |  | 
5 | O=C(NCCC1CN=C(c2ccccc2)c2ccccc2N1)c1cccs1 (configuration not stated) | 0.447 | 0.45 |  | 1.74 |  | 
6 | CN1c2ccccc2C(c2ccccc2)=NCC1CCNC(=O)c1ccc(F)cc1 (configuration not stated) | 0.302 | 0.3 |  |  |  | 
7 | CN1c2ccc(Cl)cc2C(c2ccccc2)=NCC1CCNC(=O)c1cc2ccccc2[nH]1 (configuration not stated) | 13.5 | 13.6 |  |  |  | 
8 | CN1c2ccccc2C(c2ccccc2F)=NCC1CCNC(=O)c1ccsc1 (configuration not stated) |  | 0.37 | 3 | 0.78 | 1.93 | 69
9 | CN1c2ccc(Cl)cc2C(c2ccccc2)=NCC1CCNC(=O)c1ccc(F)cc1 (configuration not stated) | 0.55 | 0.55 |  |  |  | 
10 | CN1c2ccccc2C(c2ccccc2)=NCC1CCNC(=O)c1cccs1 (configuration not stated) |  | 0.58 | 9.4 |  |  | 
11 | CN1c2ccccc2C(c2ccccc2)=NC[C@@H]1CCNC(=O)c1cccs1 | 0.427 | 0.43 | 9.2 |  |  | 
12 | CN1c2ccc(Cl)cc2C(c2ccccc2)=NC[C@@H]1CCNC(=O)c1cccs1 | 0.692 | 0.69 | 27.4 |  |  | 
13 | CN1c2ccccc2C(c2ccccc2F)=NC[C@@H]1CCNC(=O)c1ccsc1 | 0.17 | 0.17 | 1.5 |  |  | 27.8
14 | CN1c2ccccc2C(c2ccccc2)=NC[C@H]1CCNC(=O)c1cccs1 |  | 1.28 | 54.8 |  |  | 
15 | CN1c2ccc(Cl)cc2C(c2ccccc2)=NC[C@H]1CCNC(=O)c1cccs1 |  | 0.79 | 33.2 |  |  | 
16 | CN1c2ccccc2C(c2ccccc2F)=NC[C@H]1CCNC(=O)c1ccsc1 |  | 0.71 | 24.8 |  |  | 438
17 | O=C(NCCC1CN=C(c2ccccc2)c2ccccc2N1)c1ccccc1F (configuration not stated) | 0.537 | 0.53 |  |  |  | 
18 | CN1c2ccccc2C(c2ccccc2)=NCC1CCNC(=O)c1ccc([N+](=O)[O-])cc1 (configuration not stated) | 0.479 | 0.47 |  |  |  | 
19 | CN(CCC1CN=C(c2ccccc2)c2ccccc2N1C)C(=O)c1cccs1 (configuration not stated) | 4.37 | 4.34 |  | 25.7 |  | 
20 | CN1c2ccc(Cl)cc2C(c2ccccc2)=NCC1CCNC(=O)c1ccc(Cl)cc1 (configuration not stated) | 1.32 | 1.31 |  |  |  | 
21 | O=C(NCCC1CN=C(c2ccccc2)c2ccccc2N1)c1ccc(F)cc1 (configuration not stated) | 0.282 | 0.28 |  |  |  | 
22 | CN1c2ccccc2C(c2ccccc2)=NCC1CCNC(=O)c1ccccc1F (configuration not stated) | 0.363 | 0.36 |  |  |  | 
23 | Oc1ccc2c3c1O[C@H]1c4[nH]c5ccccc5c4C[C@@]4(O)[C@@H](C2)N(CC2CC2)CC[C@]314 [NALTRINDOLE] |  |  |  | 10.2 | 14.7 | 
